Data: patent US20200123146A1, “HETEROCYCLIC INTEGRIN AGONISTS” (GB006, Inc., priority 2016, published 2020)

Legend:
[1] = target: T1, integrin CD11b/CD18 (K562 CD11b/CD18 cells) (Homo sapiens, UniProt P05107+P11215); experiment: K562 cell adhesion assay with immobilized ligands; type: cell-based; conditions: cell-based adhesion assay, K562 cells, 30 min at 37° C.
T1 construct: host or cells: K562 cells stably transfected with wild-type CD11b/CD18
Source text: (§1) Cell Lines. K562 cells (ATCC) stably transfected with wild-type integrin CD11b/CD18 (K562 CD11b/CD18) have been described previously (Park, etal. J Biomol Screen, 2007. 12(3): 406; Gupta, et al., Blood, 2007. 109(8): 3513; incorporated herein by reference in their entirety). Mutant CD11bE320A has been described previously (Alonso, et al. Curr Biol, 2002. 12(10): R340; incorporated herein by reference in its entirety). K562 cells stably transfected with mutant integrin CD11bE320A/CD18 (K562 E320A) were generated according to literature protocols (Park, supra; Gupta, supra). All cell lines were maintained in Iscove's Modified Dulbecco's Medium (IMDM) supplemented with 10% heat-inactivated fetal bovine serum, 50 IU/ml penicillin and streptomycin and 0.5 mg/ml G418.
(§2) K562 Cell Adhesion Assay. Cell adhesion assays with immobilized ligands were performed as previously described (Park, supra). Assays with all different K562 cell lines (K562, K562 CD11b/CD18 and K562 E320A) were performed in an identical fashion. Briefly, 384-well Highbind microtiter plates were coated with a 30 μL solution of ligand in Phosphate Buffered Saline, pH 7.4 containing 1 mM each of Ca^2+ and Mg^2+ ions (PBS^++) overnight at 4° C. Ligand Fg was coated at a concentration of 5-15 μg/mL and iC3b at 1-5 μg/mL. Heterodimer specific mAb IB4 was coated at 1-20 μg/mL. Subsequently, the non-specific sites in the wells were blocked by incubation with 1% non-fat milk in Tris Buffered Saline (TBS), pH 7.4, at room temperature for 1 h. Next, the wells were washed three times with TBS. K562 cells were suspended in the assay buffer (TBS containing 1 mM each of Ca^2+ and Mg^2+ ions (TBS^++)) and were transferred to the ligand-coated wells (30,000 cells/well). Stock solutions of the integrin agonists were prepared by dissolving the compounds in DMSO at a concentration of 2-10 mM. Final concentration of DMSO in the assay was approximately 1-2%. K562 cells were incubated in the presence of increasing concentration of integrin agonist for 30 min at 37° C. To dislodge non-adherent cells, the assay plates were gently inverted and kept in the inverted position for 30 min at room temperature. Cells remaining adherent were fixed using formaldehyde and were quantitated using imaging microscopy, as previously described (Park, supra).

[2] = target: T2, integrin CD11b/CD18 (K562 CD11b/CD18 cells) (Homo sapiens, UniProt P11215); experiment: K562 cell adhesion assay with immobilized ligands; type: cell-based; conditions: for activity level in adhesion assay: compared with the other compounds in the study
T2 construct: host or cells: K562 cells stably transfected with wild-type CD11b/CD18
Source text: as §1, §2

[3] = Pharmacokinetic properties after PO/IV cassette dosing; type: in vivo, Balb/C mice; conditions: mouse, plasma; for Vd: read-out: Vdss; for AUC(0-t): PO 10 mg/kg and/or IV 1 mg/kg cassette dose; for bioavailability: head prints Rat, method Balb/C mice, PO 10 mg/kg, IV 1 mg/kg cassette dose, read-out: Rat F %
Experimental: Integrin agonists as described above were administered to Balb/C mice orally (PO; gavage; 10 mg/kg) and/or intravenously (IV; bolus through tail vein; 1 mg/kg) as a cassette dose with 2 to 3 compounds dosed at a time. A total of twelve mice between age 5-6 weeks with a body weight range of 24-28 g were used. The feeding regimen included 4 h fasting and the feed was provided 2 h after the dosage inoculation and water was provided ad libitum. The blood collection schedule for PO was at 0.25, 0.5, 1, 2, 4, 8,10 and 24 h, and for IV it was at 0.12, 0.25, 0.5, 1, 2, 4, 8 and 24 h post-dose administration under isoflurane anesthesia. For PO dosage, a suspension formulation in 0.2% Tween-80 and 99.8% methyl cellulose (0.5% in water) was prepared in milli-Q water; for IV dosage, a solution formulation in 5% DMSO, 5% Solutol:absolute alcohol (1:1, v/v), and 90% normal saline was prepared.
Dose preparation: For PO dosage, each integrin agonist was wetted with Tween-80 and triturated in a mortar and pestle, and then 0.5% of methyl cellulose was slowly added to make up the final volume for administration. For IV dosage, each integrin agonist was dissolved in DMSO and Solutol:absolute ethanol (1:1, v/v), vortexed, and combined with normal saline.
Methodology for preparation of CC/QC samples: 5 μL of working stock solution was spiked in to 45 μL of blank plasma to obtain the desired concentration in pre-labeled vials. To it was added 250 μL of 100% acetonitrile containing internal standard (tolbutamide: 100 ng/mL) and the sample was vortexed for 2 min followed by centrifugation for 5 min at 20,817×g at 4° C. Supernatant was separated and 5 μL of same was injected on LC-MS/MS.
Data Analysis: Na2EDTA plasma samples were analyzed using a fit-for-purpose LC-MS/MS method.

CT26 cells = experiment: Syngeneic colon cancer mouse model using CT-26 cell line; type: in vivo, BALB/c mice; conditions: Day 21, female Balb/C, 10 mg/kg PO BID
Experimental: Compound 1, compound 8, and compound 12 were dosed at 10 mg/kg BID oral daily for 21 days in a syngeneic colon cancer mouse model using CT-26 cell line. CT26 cells were injected subcutaneously into right flank of female BALB/c mice, aged 7-8 weeks, on Day 1. Tumors were grown for 11 days and dosing was begun and dosed daily for 21 days. Tumor volume/growth (TV=Length×Width 2/2) was measured two times a week. Body weight was measured twice weekly. At the end of study tumor tissue and serum was collected and preserved. Morbidity and Mortality was monitored during the course of study.

tumor = conditions: in vivo; cited from earlier work
[4] = in vivo; cited from earlier work
[5] = in vivo; cited from earlier work; remark: listed apart in the source
leukocytes = conditions: acute peritonitis in mice; cited from earlier work
[6] = upon vascular injury in rats; cited from earlier work
[7] = in vivo; cited from earlier work; remark: listed apart in the source
[8] = mice; cited from earlier work
[9] = in vivo; cited from earlier work; remark: listed apart in the source
[10] = Balb/C, IV 1 mg/kg and/or PO 10 mg/kg cassette dose

O=C(O)c1ccc(-c2ccc(/C=C3\OC(=S)N(Cc4ccccc4)C3=O)o2)cc1 [Compound 1, (Z)-4-(5-((3-Benzyl-4-oxo-2-thioxooxazolidin-5-ylidene)methyl)furan-2-yl)benzoic acid]
EC50 [1]: 0.25 to 1 µM
fold more active in promoting adhesion than imidazolidine compound 4 ([2]; relative to compound 4): greater than 7 fold
fold more active in promoting adhesion than imidazolidine compound 5 ([2]; relative to compound 5): greater than 40 fold
Tmax [3, 10]: 2 h
half-life [3, 10]: 1.97 h
Vd [3, 10]: 1.5 L/kg
AUC(0-t) ([3]; Balb/C): 1060 ng·h/mL
bioavailability [3]: 18.6%
% Reduction in Tumor Volume (CT26 cells): −38.30%
% Reduction in Tumor Weight (CT26 cells): −37.15%

O=C(O)c1ccc(-c2ccc(/C=C3\OC(=S)N(Cc4ccc(F)cc4)C3=O)o2)cc1 [Compound 8, (Z)-4-(5-((3-(4-Fluorobenzyl)-4-oxo-2-thioxooxazolidin-5-ylidene)methyl)furan-2-yl)benzoic acid]
EC50 [1]: 0.1 to 0.25 µM
Tmax [3, 10]: 2 h
half-life [3, 10]: 3.09 h
Vd [3, 10]: 1.37 L/kg
bioavailability [3]: 8.82%
% Reduction in Tumor Volume (CT26 cells): 5.25%
% Reduction in Tumor Weight (CT26 cells): −3.08%

O=C(O)c1ccc(-c2ccc(/C=C3\SC(=S)N(Cc4ccccc4)C3=O)o2)cn1 [Compound 12, (Z)-5-(5-((3-benzyl-4-oxo-2-thioxothiazolidin-5-ylidene)methyl)furan-2-yl)picolinic acid]
EC50 [1]: 0.1 to 0.25 µM
activity level in adhesion assay [2]: some of the highest activity levels
Cmax [3, 10]: 55 ng/mL
Tmax [3, 10]: 0.5 h
half-life [3, 10]: 1.39 h
AUC(0-t) ([3]; Balb/C): 176 ng·h/mL
% Reduction in Tumor Volume (CT26 cells): −4.42%
% Reduction in Tumor Weight (CT26 cells): 11.03%

O=C(O)c1ccc(-c2ccc(/C=C3\SC(=S)N(Cc4ccc(F)cc4)C3=O)o2)cn1 [Compound 15, (Z)-5-(5-((3-(4-Fluorobenzyl)-4-oxo-2-thioxothiazolidin-5-ylidene)methyl)furan-2-yl)picolinic acid]
EC50 [1]: 0.1 to 0.25 µM
activity level in adhesion assay [2]: some of the highest activity levels

Cc1ccc(CN2C(=O)/C(=C/c3ccc(-c4ccc(C(=O)O)cc4)o3)SC2=S)c(C)c1 [Compound 37, (Z)-4-(5-((3-(2,4-Dimethylbenzyl)-4-oxo-2-thioxothiazolidin-5-ylidene)methyl)furan-2-yl)benzoic acid]
EC50 [1]: 1 to 10 µM

Cc1ccc(CN2C(=O)/C(=C/c3ccc(-c4ccc(C(=O)O)cc4)o3)SC2=S)cc1C [Compound 38, (Z)-4-(5-((3-(3,4-Dimethylbenzyl)-4-oxo-2-thioxothiazolidin-5-ylidene)methyl)furan-2-yl)benzoic acid]
EC50 [1]: 0.1 to 0.25 µM

CC(C)c1ccc(CN2C(=O)/C(=C/c3ccc(-c4ccc(C(=O)O)cc4)o3)SC2=S)cc1 [Compound 39, (Z)-4-(5-((3-(4-Isopropylbenzyl)-4-oxo-2-thioxothiazolidin-5-ylidene)methyl)furan-2-yl)benzoic acid]
EC50 [1]: 0.25 to 1 µM

O=C(O)c1ccc(-c2ccc(/C=C3\SC(=S)N(CC4CCCCC4)C3=O)o2)cc1 [Compound 40, (Z)-4-(5-((3-(Cyclohexylmethyl)-4-oxo-2-thioxothiazolidin-5-ylidene)methyl)furan-2-yl)benzoic acid]
EC50 [1]: 1 to 10 µM

O=C(O)c1ccc(-c2ccc(/C=C3\SC(=S)N(Cc4ccccc4O)C3=O)o2)cc1 [Compound 41, (Z)-4-(5-((3-(2-hydroxybenzyl)-4-oxo-2-thioxothiazolidin-5-ylidene)methyl)furan-2-yl)benzoic acid]
EC50 [1]: 1 to 10 µM

O=C1/C(=C/c2ccc(-c3ccc(-c4nnn[nH]4)cc3)o2)SC(=S)N1Cc1ccccc1 [Compound 42, (Z)-5-((5-(4-(1H-tetrazol-5-yl)phenyl)furan-2-yl)methylene)-3-benzyl-2-thioxothiazolidin-4-one]
EC50 [1]: 0.25 to 1 µM
Tmax [3, 10]: 0.5 h
half-life [3, 10]: 0.77 h
Vd [3, 10]: 1.15 L/kg
AUC(0-t) ([3]; Balb/C): 357 ng·h/mL
bioavailability [3]: 4.1%

O=C(O)c1ccc(-c2ccc(/C=C3\SC(=S)N(Cc4ccccc4)C3=O)o2)cc1 [LA1, (Z)-4-(5-((3-benzyl-4-oxo-2-thioxothiazolidin-5-ylidene)methyl)furan-2-yl)benzoic acid]
tumor growth and re-growth (tumor): reduced tumor growth and re-growth
allograft survival [4]: increase allograft survival
liver fibrosis [5]: reduce liver fibrosis
recruitment of leukocytes (leukocytes): reduce recruitment of leukocytes
neointimal thickening [6]: reduce neointimal thickening
hyperoxia-dependent lung injury [7]: reduce hyperoxia-dependent lung injury
renal ischemia/reperfusion injury [8]: reduce renal ischemia/reperfusion injury
liver repair [9]: enhance liver repair
